Test results as given in ChEMBL document CHEMBL4184123, “Discovery of novel 2-substituted-4-phenoxypyridine derivatives as potential antitumor agents” (Bioorg Med Chem Lett, 2018).

Experiments:
A549 = assay: cells; settings: Homo sapiens, A549, 72 h
Description: Antiproliferative activity against human A549 cells after 72 hrs by MTT assay

HT-29 = assay: cells; settings: Homo sapiens, HT-29, 72 h
U-87 MG = assay: Antiproliferative activity against human U87MG cells after 72 hrs by MTT assay; format: functional, cell-based, U-87MG ATCC
NCI-H460 = assay: Antiproliferative activity against human H460 cells after 72 hrs by MTT assay; format: functional, cell-based; settings: NCI-H460, 72 h
[1] = target: Vascular endothelial growth factor receptor 3 (Homo sapiens, UniProt P35916); assay: Inhibition of VEGFR3 (unknown origin) using poly (Glu, Tyr) 4:1 as substrate after 30 mins in presence of ATP by HTRF assay
[2] = target: ALK tyrosine kinase receptor (Homo sapiens, UniProt Q9UM73); assay: Inhibition of ALK (unknown origin) using poly (Glu, Tyr) 4:1 as substrate after 30 mins in presence of ATP by HTRF assay
[3] = target: T1, Receptor-type tyrosine-protein kinase FLT3 (Homo sapiens, UniProt P36888); assay: Inhibition of FLT3 (unknown origin) using poly (Glu, Tyr) 4:1 as substrate after 30 mins in presence of ATP by HTRF assay
T1 sequence (P36888 whole entry): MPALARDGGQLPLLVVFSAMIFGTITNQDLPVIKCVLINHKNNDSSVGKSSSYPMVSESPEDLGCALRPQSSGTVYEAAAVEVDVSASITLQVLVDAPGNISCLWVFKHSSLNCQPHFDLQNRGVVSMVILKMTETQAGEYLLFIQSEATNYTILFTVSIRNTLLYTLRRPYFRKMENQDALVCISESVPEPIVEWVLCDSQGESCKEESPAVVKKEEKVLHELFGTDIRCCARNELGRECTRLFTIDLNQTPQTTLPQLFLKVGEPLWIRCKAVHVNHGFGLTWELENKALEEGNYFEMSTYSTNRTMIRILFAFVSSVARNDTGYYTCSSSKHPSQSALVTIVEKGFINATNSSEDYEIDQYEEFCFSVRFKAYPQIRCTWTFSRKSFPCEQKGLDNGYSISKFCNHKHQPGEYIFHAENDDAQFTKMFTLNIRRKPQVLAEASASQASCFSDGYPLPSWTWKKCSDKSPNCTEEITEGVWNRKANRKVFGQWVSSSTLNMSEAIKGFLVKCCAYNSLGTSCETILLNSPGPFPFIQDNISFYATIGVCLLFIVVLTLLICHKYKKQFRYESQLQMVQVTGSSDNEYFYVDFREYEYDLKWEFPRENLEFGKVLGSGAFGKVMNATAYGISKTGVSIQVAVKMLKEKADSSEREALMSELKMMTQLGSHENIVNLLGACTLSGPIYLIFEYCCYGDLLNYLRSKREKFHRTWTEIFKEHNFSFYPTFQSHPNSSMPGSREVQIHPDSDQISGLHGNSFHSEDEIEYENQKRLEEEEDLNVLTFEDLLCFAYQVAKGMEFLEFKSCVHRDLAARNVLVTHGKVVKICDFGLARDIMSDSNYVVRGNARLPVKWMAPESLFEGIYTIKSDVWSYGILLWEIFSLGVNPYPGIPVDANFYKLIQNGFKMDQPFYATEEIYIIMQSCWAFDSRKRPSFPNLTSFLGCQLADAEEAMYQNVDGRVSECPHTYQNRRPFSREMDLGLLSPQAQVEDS

[4] = target: Epidermal growth factor receptor (Homo sapiens, UniProt P00533); assay: Inhibition of EGFR (unknown origin) using poly (Glu, Tyr) 4:1 as substrate after 30 mins in presence of ATP by HTRF assay
[5] = target: Platelet-derived growth factor receptor beta (Homo sapiens, UniProt P09619); assay: Inhibition of PDGFRbeta (unknown origin) using poly (Glu, Tyr) 4:1 as substrate after 30 mins in presence of ATP by HTRF assay
[6] = target: Mast/stem cell growth factor receptor Kit (Homo sapiens, UniProt P10721); assay: Inhibition of c-KIT (unknown origin) using poly (Glu, Tyr) 4:1 as substrate after 30 mins in presence of ATP by HTRF assay
[7] = target: Hepatocyte growth factor receptor (Homo sapiens, UniProt P08581); assay: Inhibition of c-MET (unknown origin) using poly (Glu, Tyr) 4:1 as substrate after 30 mins in presence of ATP by HTRF assay
[8] = target: Vascular endothelial growth factor receptor 2 (Homo sapiens, UniProt P35968); assay: Inhibition of VEGFR2 (unknown origin) using poly (Glu, Tyr) 4:1 as substrate after 30 mins in presence of ATP by HTRF assay
[9] = target: Platelet-derived growth factor receptor alpha (Homo sapiens, UniProt P16234); assay: Inhibition of PDGFRalpha (unknown origin) using poly (Glu, Tyr) 4:1 as substrate after 30 mins in presence of ATP by HTRF assay
Chain of Platelet-derived growth factor receptor alpha (P16234 whole entry): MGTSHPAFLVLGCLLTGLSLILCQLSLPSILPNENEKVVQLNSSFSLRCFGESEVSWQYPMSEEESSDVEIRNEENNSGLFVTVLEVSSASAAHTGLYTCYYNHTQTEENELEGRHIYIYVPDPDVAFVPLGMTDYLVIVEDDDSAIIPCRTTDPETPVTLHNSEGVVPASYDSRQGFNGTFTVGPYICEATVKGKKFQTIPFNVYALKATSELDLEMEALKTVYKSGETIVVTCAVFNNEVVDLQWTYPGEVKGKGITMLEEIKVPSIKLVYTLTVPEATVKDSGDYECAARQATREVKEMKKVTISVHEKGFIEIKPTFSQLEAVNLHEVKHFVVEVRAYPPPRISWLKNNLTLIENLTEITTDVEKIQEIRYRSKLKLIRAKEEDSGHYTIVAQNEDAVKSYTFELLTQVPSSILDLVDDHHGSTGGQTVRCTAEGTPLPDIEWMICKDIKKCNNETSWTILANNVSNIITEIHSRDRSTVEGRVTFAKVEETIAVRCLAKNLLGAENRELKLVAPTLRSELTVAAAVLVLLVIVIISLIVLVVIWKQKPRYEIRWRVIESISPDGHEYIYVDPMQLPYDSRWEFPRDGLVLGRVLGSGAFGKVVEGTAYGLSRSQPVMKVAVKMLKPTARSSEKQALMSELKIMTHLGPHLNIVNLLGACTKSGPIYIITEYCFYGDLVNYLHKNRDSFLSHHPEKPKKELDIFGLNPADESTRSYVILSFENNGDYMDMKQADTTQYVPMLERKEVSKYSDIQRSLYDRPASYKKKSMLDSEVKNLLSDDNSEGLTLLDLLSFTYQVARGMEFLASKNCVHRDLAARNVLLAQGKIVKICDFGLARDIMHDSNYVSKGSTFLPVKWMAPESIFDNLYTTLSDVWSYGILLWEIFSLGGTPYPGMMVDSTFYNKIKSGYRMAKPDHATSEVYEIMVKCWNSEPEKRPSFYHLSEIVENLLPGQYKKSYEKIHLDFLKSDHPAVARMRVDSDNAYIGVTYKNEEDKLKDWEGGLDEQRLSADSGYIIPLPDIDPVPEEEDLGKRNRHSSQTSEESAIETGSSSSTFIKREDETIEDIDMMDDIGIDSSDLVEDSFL

Chain of Vascular endothelial growth factor receptor 2 (P35968 whole entry): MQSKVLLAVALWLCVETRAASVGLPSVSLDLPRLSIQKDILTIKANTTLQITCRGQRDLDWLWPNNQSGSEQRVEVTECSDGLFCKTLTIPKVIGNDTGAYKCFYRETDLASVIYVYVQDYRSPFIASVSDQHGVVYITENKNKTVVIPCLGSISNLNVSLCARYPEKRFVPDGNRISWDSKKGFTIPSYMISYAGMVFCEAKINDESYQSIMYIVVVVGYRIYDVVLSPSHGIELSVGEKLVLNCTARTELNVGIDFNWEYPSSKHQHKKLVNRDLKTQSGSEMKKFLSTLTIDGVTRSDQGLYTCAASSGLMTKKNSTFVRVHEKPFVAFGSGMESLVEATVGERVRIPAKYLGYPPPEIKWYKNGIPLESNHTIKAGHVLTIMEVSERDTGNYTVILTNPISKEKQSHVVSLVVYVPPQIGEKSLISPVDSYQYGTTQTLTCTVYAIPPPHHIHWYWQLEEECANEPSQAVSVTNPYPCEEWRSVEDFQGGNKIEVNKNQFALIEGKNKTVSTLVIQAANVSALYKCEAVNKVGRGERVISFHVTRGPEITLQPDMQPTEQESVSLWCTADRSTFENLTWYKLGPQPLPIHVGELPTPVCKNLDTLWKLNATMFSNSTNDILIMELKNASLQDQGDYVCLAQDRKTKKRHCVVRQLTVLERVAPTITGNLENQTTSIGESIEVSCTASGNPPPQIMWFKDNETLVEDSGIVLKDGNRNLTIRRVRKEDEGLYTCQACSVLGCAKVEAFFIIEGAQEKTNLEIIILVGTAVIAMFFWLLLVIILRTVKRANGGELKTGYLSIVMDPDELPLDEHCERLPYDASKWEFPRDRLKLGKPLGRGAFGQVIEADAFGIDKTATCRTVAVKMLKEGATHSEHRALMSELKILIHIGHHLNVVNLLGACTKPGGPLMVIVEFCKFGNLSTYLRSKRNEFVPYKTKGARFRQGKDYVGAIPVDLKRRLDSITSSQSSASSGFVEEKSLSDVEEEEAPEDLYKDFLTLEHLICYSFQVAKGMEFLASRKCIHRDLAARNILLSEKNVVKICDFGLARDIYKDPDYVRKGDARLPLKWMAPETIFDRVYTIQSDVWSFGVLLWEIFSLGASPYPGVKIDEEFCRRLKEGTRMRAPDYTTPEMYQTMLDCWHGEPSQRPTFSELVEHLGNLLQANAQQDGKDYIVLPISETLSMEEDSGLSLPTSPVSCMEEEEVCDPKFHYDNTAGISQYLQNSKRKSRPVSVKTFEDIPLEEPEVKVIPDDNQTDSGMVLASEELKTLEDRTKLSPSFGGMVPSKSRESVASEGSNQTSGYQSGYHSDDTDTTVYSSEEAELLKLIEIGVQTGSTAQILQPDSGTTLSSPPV
Chain of Hepatocyte growth factor receptor (P08581 whole entry): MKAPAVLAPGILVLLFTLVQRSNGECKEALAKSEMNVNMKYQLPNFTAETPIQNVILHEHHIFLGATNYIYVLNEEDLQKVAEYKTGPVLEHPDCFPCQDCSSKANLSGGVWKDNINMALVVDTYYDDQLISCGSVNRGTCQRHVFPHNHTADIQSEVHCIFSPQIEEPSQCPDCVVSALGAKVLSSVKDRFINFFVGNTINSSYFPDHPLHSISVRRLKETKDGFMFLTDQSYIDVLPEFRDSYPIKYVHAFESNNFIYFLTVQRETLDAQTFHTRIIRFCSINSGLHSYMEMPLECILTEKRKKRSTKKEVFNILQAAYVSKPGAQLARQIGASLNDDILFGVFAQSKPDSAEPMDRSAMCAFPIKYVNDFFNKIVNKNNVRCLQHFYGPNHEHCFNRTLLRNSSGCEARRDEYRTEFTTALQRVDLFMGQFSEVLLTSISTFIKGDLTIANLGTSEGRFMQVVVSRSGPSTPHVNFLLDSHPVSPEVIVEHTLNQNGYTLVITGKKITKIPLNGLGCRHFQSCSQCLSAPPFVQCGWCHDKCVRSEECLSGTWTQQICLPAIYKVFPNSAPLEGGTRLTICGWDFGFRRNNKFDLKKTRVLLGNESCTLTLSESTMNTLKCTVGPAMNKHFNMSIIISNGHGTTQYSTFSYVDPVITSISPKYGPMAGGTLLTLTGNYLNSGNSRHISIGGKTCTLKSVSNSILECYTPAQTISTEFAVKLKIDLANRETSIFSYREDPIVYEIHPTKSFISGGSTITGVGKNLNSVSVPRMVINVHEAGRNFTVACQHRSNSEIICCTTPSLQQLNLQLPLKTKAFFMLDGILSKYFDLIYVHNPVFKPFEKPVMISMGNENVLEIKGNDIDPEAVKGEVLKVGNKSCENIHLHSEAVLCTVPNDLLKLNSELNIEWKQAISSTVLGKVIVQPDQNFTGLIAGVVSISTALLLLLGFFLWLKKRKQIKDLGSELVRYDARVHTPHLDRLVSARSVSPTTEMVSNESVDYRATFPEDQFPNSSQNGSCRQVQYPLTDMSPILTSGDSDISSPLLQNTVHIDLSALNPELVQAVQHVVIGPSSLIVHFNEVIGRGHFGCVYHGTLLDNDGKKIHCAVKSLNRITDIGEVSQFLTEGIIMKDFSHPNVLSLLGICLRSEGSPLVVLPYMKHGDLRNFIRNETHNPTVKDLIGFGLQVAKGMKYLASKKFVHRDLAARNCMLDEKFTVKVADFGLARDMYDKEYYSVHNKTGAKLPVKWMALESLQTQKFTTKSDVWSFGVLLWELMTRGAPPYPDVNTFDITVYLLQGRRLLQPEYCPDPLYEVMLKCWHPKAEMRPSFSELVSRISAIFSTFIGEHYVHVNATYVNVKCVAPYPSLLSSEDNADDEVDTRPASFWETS
Chain of Platelet-derived growth factor receptor beta (P09619 whole entry): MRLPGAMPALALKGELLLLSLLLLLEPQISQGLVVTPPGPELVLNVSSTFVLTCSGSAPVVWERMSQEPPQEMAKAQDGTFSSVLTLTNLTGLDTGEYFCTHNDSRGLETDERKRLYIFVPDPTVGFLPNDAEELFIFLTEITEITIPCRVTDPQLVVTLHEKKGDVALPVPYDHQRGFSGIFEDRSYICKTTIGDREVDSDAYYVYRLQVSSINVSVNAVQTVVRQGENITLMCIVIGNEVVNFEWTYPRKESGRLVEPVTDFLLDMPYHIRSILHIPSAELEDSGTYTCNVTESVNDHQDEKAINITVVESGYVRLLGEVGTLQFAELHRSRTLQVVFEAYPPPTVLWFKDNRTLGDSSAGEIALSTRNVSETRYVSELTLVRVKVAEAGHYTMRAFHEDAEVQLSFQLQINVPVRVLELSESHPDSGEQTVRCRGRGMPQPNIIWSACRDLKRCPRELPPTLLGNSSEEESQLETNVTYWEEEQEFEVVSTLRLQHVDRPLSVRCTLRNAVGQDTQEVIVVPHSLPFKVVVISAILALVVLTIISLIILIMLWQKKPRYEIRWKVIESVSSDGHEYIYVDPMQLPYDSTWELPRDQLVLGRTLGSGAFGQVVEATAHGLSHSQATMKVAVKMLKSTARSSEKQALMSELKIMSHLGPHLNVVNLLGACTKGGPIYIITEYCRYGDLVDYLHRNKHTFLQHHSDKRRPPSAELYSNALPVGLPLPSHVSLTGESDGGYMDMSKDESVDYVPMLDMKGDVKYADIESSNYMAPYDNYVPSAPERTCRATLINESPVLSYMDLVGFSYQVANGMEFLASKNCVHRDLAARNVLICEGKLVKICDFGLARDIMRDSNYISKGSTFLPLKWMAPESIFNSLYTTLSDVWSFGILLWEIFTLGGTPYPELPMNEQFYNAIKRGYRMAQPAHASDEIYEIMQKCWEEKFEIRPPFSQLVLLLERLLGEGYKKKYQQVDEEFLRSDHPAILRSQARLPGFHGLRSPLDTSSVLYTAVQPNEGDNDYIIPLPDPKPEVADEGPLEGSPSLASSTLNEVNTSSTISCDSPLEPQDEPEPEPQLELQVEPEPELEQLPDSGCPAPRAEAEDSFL

IC50 (A549) | IC50 (HT-29) | IC50 (U-87 MG) | IC50 (NCI-H460) | SMILES | also measured
910 nM | 1160 nM | – | – | CCNC(=O)c1cc(Oc2ccc(NC(=O)c3cc4cccnc4n(-c4ccc(Br)cc4)c3=O)cc2)ccn1 | –
110 nM | 160 nM | 2910 nM | 210 nM | CNC(=O)c1cc(Oc2ccc(NC(=O)c3cc4cccnc4n(-c4ccc(F)cc4)c3=O)cc2)ccn1 | –
1920 nM | 2600 nM | – | – | CCNC(=O)c1cc(Oc2ccc(NC(=O)c3cc4cccnc4n(-c4ccc(F)c(Cl)c4)c3=O)cc2)ccn1 | –
1420 nM | 1950 nM | – | – | CNC(=O)c1cc(Oc2ccc(NC(=O)c3cc4cccnc4n(-c4ccc(Br)cc4F)c3=O)cc2)ccn1 | –
490 nM | 260 nM | 3250 nM | 1230 nM | CCNC(=O)c1cc(Oc2ccc(NC(=O)c3cc4cccnc4n(-c4ccccc4F)c3=O)cc2)ccn1 | –
1050 nM | 1180 nM | 15000 nM | 3710 nM | CNC(=O)c1cc(Oc2ccc(NC(=O)c3cc4cccnc4n(-c4ccc(Br)cc4)c3=O)cc2)ccn1 | –
2010 nM | 3350 nM | 7210 nM | 1720 nM | CCNC(=O)c1cc(Oc2ccc(NC(=O)c3cc4cccnc4n(-c4ccc(OC)cc4)c3=O)cc2)ccn1 | –
3290 nM | 4770 nM | – | – | CCNC(=O)c1cc(Oc2ccc(NC(=O)c3cc4cccnc4n(-c4ccc(C(F)(F)F)cc4Cl)c3=O)cc2)ccn1 | –
2090 nM | 3190 nM | 19800 nM | 2110 nM | CNC(=O)c1cc(Oc2ccc(NC(=O)c3cc4cccnc4n(-c4ccc(C(F)(F)F)cc4Cl)c3=O)cc2)ccn1 | –
590 nM | 920 nM | 3590 nM | 1600 nM | CCCNC(=O)c1cc(Oc2ccc(NC(=O)c3cc4cccnc4n(-c4ccc(F)c(Cl)c4)c3=O)cc2)ccn1 | –
1250 nM | 1960 nM | 10900 nM | 3170 nM | CCCNC(=O)c1cc(Oc2ccc(NC(=O)c3cc4cccnc4n(-c4ccc(C(F)(F)F)cc4Cl)c3=O)cc2)ccn1 | –
610 nM | 260 nM | 3360 nM | 590 nM | CNC(=O)c1cc(Oc2ccc(NC(=O)c3cc4cccnc4n(-c4ccccc4F)c3=O)cc2)ccn1 | –
820 nM | 1560 nM | 8210 nM | 1730 nM | CCCNC(=O)c1cc(Oc2ccc(NC(=O)c3cc4cccnc4n(-c4ccc(OC)cc4)c3=O)cc2)ccn1 | –
120 nM | 390 nM | – | – | CCCNC(=O)c1cc(Oc2ccc(NC(=O)c3cc4cccnc4n(-c4ccc(Cl)cc4)c3=O)cc2)ccn1 | –
150 nM | 200 nM | 2320 nM | 390 nM | CCCNC(=O)c1cc(Oc2ccc(NC(=O)c3cc4cccnc4n(-c4ccccc4F)c3=O)cc2)ccn1 | –
200 nM | 250 nM | 1820 nM | 320 nM | CNC(=O)c1cc(Oc2ccc(NC(=O)c3cc4cccnc4n(-c4ccccc4)c3=O)cc2)ccn1 | –
120 nM | 190 nM | 1130 nM | 220 nM | CCNC(=O)c1cc(Oc2ccc(NC(=O)c3cc4cccnc4n(-c4ccc(F)cc4)c3=O)cc2)ccn1 | –
150 nM | 530 nM | 5190 nM | 620 nM | CCCNC(=O)c1cc(Oc2ccc(NC(=O)c3cc4cccnc4n(-c4ccc(Br)cc4)c3=O)cc2)ccn1 | –
3110 nM | 920 nM | – | – | CNC(=O)c1cc(Oc2ccc(NC(=O)c3cc4cccnc4n(-c4ccc(OC)cc4)c3=O)cc2)ccn1 | –
1310 nM | 2160 nM | – | – | CCCNC(=O)c1cc(Oc2ccc(NC(=O)c3cc4cccnc4n(-c4ccc(Br)cc4F)c3=O)cc2)ccn1 | –
1560 nM | 1810 nM | – | – | CNC(=O)c1cc(Oc2ccc(NC(=O)c3cc4cccnc4n(-c4ccc(F)c(Cl)c4)c3=O)cc2)ccn1 | –
62 nM | 84 nM | 960 nM | 120 nM | CCCNC(=O)c1cc(Oc2ccc(NC(=O)c3cc4cccnc4n(-c4ccc(F)cc4)c3=O)cc2)ccn1 | IC50 [1]: 23.6 nM; IC50 [2]: 186 nM; IC50 [3]: 2.18 nM; IC50 [4]: > 100000 nM; IC50 [5]: 482 nM; IC50 [6]: 529 nM; IC50 [7]: 2.61 nM; IC50 [8]: 291 nM; IC50 [9]: 691 nM
160 nM | 220 nM | 2650 nM | 1120 nM | CCNC(=O)c1cc(Oc2ccc(NC(=O)c3cc4cccnc4n(-c4ccccc4)c3=O)cc2)ccn1 | –
95 nM | 98 nM | 1510 nM | 110 nM | CCCNC(=O)c1cc(Oc2ccc(NC(=O)c3cc4cccnc4n(-c4ccccc4)c3=O)cc2)ccn1 | –
370 nM | 390 nM | – | – | CNC(=O)c1cc(Oc2ccc(NC(=O)c3cc4cccnc4n(-c4ccc(Cl)cc4)c3=O)cc2)ccn1 | –
1820 nM | 2070 nM | 10300 nM | 1790 nM | CCNC(=O)c1cc(Oc2ccc(NC(=O)c3cc4cccnc4n(-c4ccc(Br)cc4F)c3=O)cc2)ccn1 | –
250 nM | 330 nM | – | – | CCNC(=O)c1cc(Oc2ccc(NC(=O)c3cc4cccnc4n(-c4ccc(Cl)cc4)c3=O)cc2)ccn1 | –
